# Experimental data reported in patent US20260263442A1, “METHOD FOR TREATING L-DOPA-INDUCED DYSKINESIA USING BEFIRADOL” (Neurolixis, Inc., priority 2023, published 2026).
# “And” between values parts separate entries of the source, which are not always exact repeats. Equal values may be shown once. Read-outs that look alike come from different tables or passages of the source.
# What was measured:
# [1] = system: models of pain, forced swim test, spinal cord injury model; details: animal experiments; cited from earlier work
# MPTP-treated marmosets = details: cited from earlier work
# [2] = system: anxiety and depression in PD patients with LID; assay: Hospital Anxiety Depression Scale (HADS), Phase 2a study; type: in vivo, human
# Text: The HADS is used to determine the levels of anxiety and depression that a person is experiencing. The questionnaire consists of 7 items related to anxiety and 7 related to depression. Each item on the questionnaires is scored from 0-3, which means that a person can score between 0 and 21 for either anxiety or depression.
# [3] = system: overall PD symptoms in PD patients with LID; type: in vivo, human
# Text: The CGI-C is a clinician-oriented scale that assesses the total improvement in the patient's condition relative to the clinical global impression of severity (CGI-S) scale conducted at baseline. The CGI-C rates the patient's condition from 0 to 7, with a rating of 0 indicating “no assessment”, a rating of 1 indicating “very much better”, and a rating of 7 indicating “very much worse”.
# 6-OH-DA lesioned rats = details: cited from earlier work
# [4] = system: quality of life in PD patients with LID; assay: Parkinson's Disease Questionnaire (PDQ39), Phase 2a study; type: in vivo, human
# Text: The PDQ39-item patient reported outcome of health status and quality of life and is the most frequently used disease-specific health status measure for PD. The questionnaire assesses how often people affected by PD experience difficulties across 8 dimensions of daily living. The standard PDQ39 assesses quality of life over the previous month. In this study the initial time period assessed at the Baseline Visit would be the previous month, with subsequent assessments for the intervening period since the last clinic visit (about 3 weeks). The 8 quality of life dimensions covered in the questionnaire are: • Mobility (10 items #1-10) • ADL (6 items #11-16) • Emotional Well Being (6 items #17-22) • Stigma (4 items #23-26) • Social Support (3 items #27-29) • Cognition (4 items #30-33) • Communications (3 items #34-36) • Bodily Discomfort (3 items #37-39) Individual items are rated by the patient on a scale of […]. Dimension scores are calculated on a scale of 0 to 100. The total score and individual dimension scores would be assessed for change from baseline.
# [5] = system: overactive bladder in PD patients with LID; assay: ICIQ Overactive Bladder Module (ICIQ-OAB), Phase 2a study; type: in vivo, human
# Text: The ICIQ-OAB provides a brief and robust measure to assess the impact of symptoms of overactive bladder on quality of life and outcome of treatment. It is a 4-item patient reported outcome covering 4 domains of bladder function: frequency, nocturia, urgency, and urge urinary incontinence. Each item is scored by frequency of 0-4, for a total score of 0-16. Ratings would be based on the previous month or since the last clinic visit. Efficacy would be assessed as change from the baseline total score.
# [6] = system: Parkinson's disease symptoms in PD patients with LID; assay: Unified Parkinson's Disease Rating Scale (UPDRS), Phase 2a study; details: for UPDRS Part 3, Baseline / UPDRS Part 3, Δ / UPDRS Total, Baseline / UPDRS Total, Δ: on NLX-112
# Method: Because the level of dyskinesia experienced by patients can vary over time, they were given 150% (i.e., 1.5×) of their regular L-DOPA dose (up to a maximum of 250 mg) as a challenge 30 min before each dyskinesia assessment to improve comparability between patients and between visits. […] PD symptoms were assessed by Unified Parkinson's Disease Rating Scale (UPDRS) 30-90 min after the 150% L-DOPA challenge (i.e., when the patient was ON). Changes from baseline are shown for total score (i.e., Parts 1 to 4) and individual scores for each Part, 1, 2, 3 and 4.
# Patients were challenged with 150% of their standard L-DOPA dose (maximum L-DOPA dose 250 mg) 30 minutes prior to the first UDysRS assessment. • Change from baseline in UDysRS total score at Day 28 and Day 42, after a 150% L-DOPA dose challenge. • Change from baseline in total objective score (Parts III, IV) of the UDysRS at Day 28 and Day 42, after a 150% L-DOPA dose challenge. • Change from baseline in ON Time Without Troublesome Dyskinesia (ON Without Dyskinesia plus ON With Non-troublesome Dyskinesia) based on a PD Home Dyskinesia Diary. • Change from baseline in Unified Parkinson's Disease Rating Scale (UPDRS) scores (Part III, motor examination). • Change from baseline in UPDRS combined scores (Parts I, II, III and IV). • Clinical Global Impression of Change (CGI-C) in overall PD symptoms • Change from baseline in dyskinesia scores measured by the Kinesia 360 (Great Lakes Neurotechnologies, Inc) wearable dyskinesia assessment system.
# The UPDRS consists of 4 parts: • Part I assesses non-motor experiences of daily living, such as cognitive impairment and depressed mood. • Part II assesses motor experiences of daily living, such as speech and eating tasks. • Part III is a motor examination conducted by the clinician, including assessments of symptoms such as rigidity and tremor. • Part IV is an assessment of motor complications, such as time spent with dyskinesia and functional impact of dyskinesias.
# Each item in the UPDRS is scored from 0 to 4, and the individual scores are summed to give a total score that indicates the severity of the disease, with a score of 0 indicating no disability and a score of 199 being the most severe (indicating total disability).
# Change from baseline in UPDRS combined scores (Parts I, II, III and IV) to Visit 6 (Day 28) and Visit 7 (Day 42) respectively would be summarized using descriptive statistics. […] The same analysis would be done for UPDRS Part III only.
# [7] = in vivo; cited from earlier work
# [8] = Baseline, Per Protocol Set, n = 15
# [9] = change from baseline at day 28 (end of up-titration period), Per Protocol Set, n = 15
# [10] = change from baseline at day 42 (end of stable dosing period), Per Protocol Set, n = 15
# [11] = Baseline, mean (SD), per-protocol set n = 15
# [12] = Day 28, mean (SD), per-protocol set n = 15
# [13] = Day 42, mean (SD), per-protocol set n = 15
# [14] = Patient A, amantadine treatment 1 year
# [15] = Patient B, amantadine treatment 2 years
# [16] = Patient C, amantadine treatment 7 years
# [17] = Patient D, amantadine treatment 11 years
# [18] = Patient E, amantadine treatment 6 years
# [19] = Visit 2 Baseline, Per protocol analysis set, n 15
# [20] = Visit 6 Clinic Efficacy Visit (Day 28), Per protocol analysis set, n 15
# [21] = Visit 6 Clinic Efficacy Visit, Full analysis set, n=15
# [22] = Visit 7 Clinic Efficacy Visit (Day 42), Per protocol analysis set, n 15
# [23] = Visit 7 Clinic Efficacy Visit, Full analysis set, n=15
# [24] = Visit 9 Follow-up Clinic Visit, Full analysis set, n=15
# [25] = Visit 9 Follow-up Clinic Visit, Per protocol analysis set, n 15
smiles,measurement,setting,value
Cc1ccc(CNCC2(F)CCN(C(=O)c3ccc(F)c(Cl)c3)CC2)nc1 [NLX-112],"Activity in models of pain, forced swim test and urinary function in a spinal cord injury model",[1],pronounced activity
same,Disability scores,MPTP-treated marmosets,reduces disability scores
same,"HADS (Anxiety), Baseline, mean (S.D.)",[2]; [8],4.5 (2.5)
same,"HADS (Depression), Baseline, mean (S.D.)",[2]; [8],3.7 (2.7)
same,"Anxiety and depression (HADS), effect",[2]; Days 28 or 42,no consistent statistically significant effect
same,"HADS (Anxiety), Δ D28, mean (S.D.)",[2]; [9],−0.5 (2.5)
same,"HADS (Depression), Δ D28, mean (S.D.)",[2]; [9],−0.4 (1.7)
same,"HADS (Depression), Δ D42, mean (S.D.)",[2]; [10],−0.6 (1.9)
same,"CGI-C, proportion of patients improved (minimally, much or very much improved)",[3]; day 28,33%
same,"CGI-C, proportion of patients improved (minimally, much or very much improved)",[3]; day 42,53%
same,Rotation behavior,6-OH-DA lesioned rats; 6-OH-DA lesioned rats,increases rotation behavior
same,Dopamine surge following L-DOPA administration,6-OH-DA lesioned rats; parkinsonian rat model of LID,blunted
same,Striatal 5-HT release,6-OH-DA lesioned rats; parkinsonian rat model of LID,inhibited striatal 5-HT release
same,Antidyskinetic efficacy against L-DOPA-induced dyskinesia on chronic administration,"6-OH-DA lesioned rats; rat, 2-week treatment period",did maintain its antidyskinetic efficacy
same,"Quality of life (PDQ39 score), effect",[4]; Days 28 or 42,no consistent statistically significant effect
same,"PDQ39, Δ D28, mean (S.D.)",[4]; [9],−1.5 (8.0)
same,"PDQ39, Δ D42, mean (S.D.)",[4]; [10],−0.6 (6.5)
same,"Incontinence (ICIQ-OAB), effect",[5]; Days 28 or 42,no consistent statistically significant effect
same,"ICIQ-OAB, Δ D28, mean (S.D.)",[5]; [9],0.7 (6.5)
same,"ICIQ-OAB, Δ D42, mean (S.D.)",[5]; [10],−0.8 (8.02)
same,UPDRS Part 1,[6]; [11],1.0 (1.0)
same,UPDRS Part 4,[6]; [11],8.0 (2.0)
same,"UPDRS Part 3, change from baseline",[6]; [12],−3.7 points and −3.7 (4.7)**# points
same,"UPDRS Total (Parts 1 to 4), change from baseline",[6]; [12],−6.5 points and −6.5 (7.6)*** points
same,"UPDRS Part 3, change from baseline",[6]; [13],−3.7 points and −3.7 (4.6)** points
same,"UPDRS Total (Parts 1 to 4), change from baseline",[6]; [13],−5.7 points and −5.7 (6.0)** points
same,"UPDRS Part 3, Baseline",[6]; [14],8
same,"UPDRS Part 3, Δ",[6]; [14],−4
same,"UPDRS Total, Baseline",[6]; [14],22
same,"UPDRS Total, Δ",[6]; [14],−5
same,"UPDRS Part 3, Baseline",[6]; [15],22
same,"UPDRS Part 3, Δ",[6]; [15],−9
same,"UPDRS Total, Baseline",[6]; [15],44
same,"UPDRS Total, Δ",[6]; [15],−15
same,"UPDRS Part 3, Baseline",[6]; [16],28
same,"UPDRS Part 3, Δ",[6]; [16],−13
same,"UPDRS Total, Baseline",[6]; [16],51
same,"UPDRS Total, Δ",[6]; [16],−11
same,"UPDRS Part 3, Baseline",[6]; [17],11
same,"UPDRS Part 3, Δ",[6]; [17],+3
same,"UPDRS Total, Baseline",[6]; [17],26
same,"UPDRS Total, Δ",[6]; [17],−5
same,"UPDRS Part 3, Baseline",[6]; [18],15
same,"UPDRS Part 3, Δ",[6]; [18],+2
same,"UPDRS Total, Baseline",[6]; [18],30
same,"UPDRS Total, Δ",[6]; [18],+3
same,"UPDRS Part 3 Motor Total, collected value, Median (Min, Max)","[6]; Visit 2 Baseline, Full analysis set, n=18","16.0 (3, 39)"
same,"UPDRS Part 3 Motor Total, collected value, Median (Min, Max)",[6]; [19],"17.0 (3, 39)"
same,"UPDRS Total Score, Collected value, Mean (SD)",[6]; [19],37.0 (13.3)
same,"UPDRS Total Score, Collected value, Median (Min, Max)",[6]; [19],"36.0 (17, 66)"
same,"UPDRS Part 3 Motor Total, absolute change from baseline, Mean (SD)",[6]; [20],−3.7 (4.7)
same,"UPDRS Part 3 Motor Total, absolute change from baseline, Median (Min, Max)",[6]; [20],"−4.0 (−12, 5)"
same,"UPDRS Part 3 Motor Total, collected value, Median (Min, Max)",[6]; [20],"14.0 (2, 30)"
same,"UPDRS Total Score, Absolute change from baseline, Mean (SD)",[6]; [20],−6.5 (7.6)
same,"UPDRS Total Score, Absolute change from baseline, Median (Min, Max)",[6]; [20],"−5.0 (−23, 6)"
same,"UPDRS Total Score, Collected value, Median (Min, Max)",[6]; [20],"29.0 (13, 54)"
same,"UPDRS Part 3 Motor Total, absolute change from baseline, Mean (SD)",[6]; [21],−3.7 (4.7)
same,"UPDRS Part 3 Motor Total, absolute change from baseline, Median (Min, Max)",[6]; [21],"−4.0 (−12, 5)"
same,"UPDRS Part 3 Motor Total, collected value, Median (Min, Max)",[6]; [21],"14.0 (2, 30)"
same,"UPDRS Total Score (all Parts), absolute change from baseline, Mean (SD)",[6]; [21],−6.5 (7.6)
same,"UPDRS Total Score (all Parts), absolute change from baseline, Median (Min, Max)",[6]; [21],"−5.0 (−23, 6)"
same,"UPDRS Total Score (all Parts), collected value, Median (Min, Max)",[6]; [21],"29.0 (13, 54)"
same,"UPDRS Part 3 Motor Total, absolute change from baseline, Mean (SD)",[6]; [22],−3.7 (4.6)
same,"UPDRS Part 3 Motor Total, absolute change from baseline, Median (Min, Max)",[6]; [22],"−4.0 (−13, 3)"
same,"UPDRS Part 3 Motor Total, collected value, Median (Min, Max)",[6]; [22],"14.0 (1, 35)"
same,"UPDRS Total Score, Absolute change from baseline, Mean (SD)",[6]; [22],−5.7 (6.0)
same,"UPDRS Total Score, Absolute change from baseline, Median (Min, Max)",[6]; [22],"−5.0 (−15, 4)"
same,"UPDRS Total Score, Collected value, Median (Min, Max)",[6]; [22],"30.0 (15, 63)"
same,"UPDRS Part 3 Motor Total, absolute change from baseline, Mean (SD)",[6]; [23],−3.7 (4.6)
same,"UPDRS Part 3 Motor Total, absolute change from baseline, Median (Min, Max)",[6]; [23],"−4.0 (−13, 3)"
same,"UPDRS Part 3 Motor Total, collected value, Median (Min, Max)",[6]; [23],"14.0 (1, 35)"
same,"UPDRS Total Score (all Parts), absolute change from baseline, Mean (SD)",[6]; [23],−5.7 (6.0)
same,"UPDRS Total Score (all Parts), absolute change from baseline, Median (Min, Max)",[6]; [23],"−5.0 (−15, 4)"
same,"UPDRS Total Score (all Parts), collected value, Median (Min, Max)",[6]; [23],"30.0 (15, 63)"
same,"UPDRS Part 3 Motor Total, absolute change from baseline, Mean (SD)",[6]; [24],−2.7 (5.5)
same,"UPDRS Part 3 Motor Total, absolute change from baseline, Median (Min, Max)",[6]; [24],"−2.0 (−15, 4)"
same,"UPDRS Part 3 Motor Total, collected value, Median (Min, Max)",[6]; [24],"13.0 (2, 32)"
same,"UPDRS Total Score (all Parts), absolute change from baseline, Mean (SD)",[6]; [24],−4.4 (9.0)
same,"UPDRS Total Score (all Parts), absolute change from baseline, Median (Min, Max)",[6]; [24],"−3.0 (−20, 7)"
same,"UPDRS Total Score (all Parts), collected value, Median (Min, Max)",[6]; [24],"31.0 (15, 56)"
same,"UPDRS Part 3 Motor Total, absolute change from baseline, Mean (SD)",[6]; [25],−2.7 (5.5)
same,"UPDRS Part 3 Motor Total, absolute change from baseline, Median (Min, Max)",[6]; [25],"−2.0 (−15, 4)"
same,"UPDRS Part 3 Motor Total, collected value, Median (Min, Max)",[6]; [25],"13.0 (2, 32)"
same,"UPDRS Total Score, Absolute change from baseline, Mean (SD)",[6]; [25],−4.4 (9.0)
same,"UPDRS Total Score, Absolute change from baseline, Median (Min, Max)",[6]; [25],"−3.0 (−20, 7)"
same,"UPDRS Total Score, Collected value, Median (Min, Max)",[6]; [25],"31.0 (15, 56)"
same,"Reduction in UPDRS Part 3 scores, more than placebo",[6]; day 42,3.9 points
same,Amantadine co-treated NLX-112 patients with decreases in UPDRS total score and UPDRS Part 3,[6]; five patients also receiving amantadine,three
same,Effect on the beneficial anti-parkinsonian effects of L-DOPA,[6]; in vivo,"did not worsen, and actually enhanced, the beneficial effects of L-DOPA"
same,Amantadine co-treated NLX-112 patients with numerical reductions in PD symptoms (UPDRS),[6]; patients on NLX-112 and amantadine,4 of the 5
same,"Blood concentrations that could be associated with side effects, such as dizziness",[7],higher than 15 ng/ml
